Tests used:
[1] = target: T1, MAP kinase-activated protein kinase 5 (Homo sapiens, UniProt Q8IW41); assay: Inhibition of MAPKAPK5
T1 sequence (Q8IW41 whole entry): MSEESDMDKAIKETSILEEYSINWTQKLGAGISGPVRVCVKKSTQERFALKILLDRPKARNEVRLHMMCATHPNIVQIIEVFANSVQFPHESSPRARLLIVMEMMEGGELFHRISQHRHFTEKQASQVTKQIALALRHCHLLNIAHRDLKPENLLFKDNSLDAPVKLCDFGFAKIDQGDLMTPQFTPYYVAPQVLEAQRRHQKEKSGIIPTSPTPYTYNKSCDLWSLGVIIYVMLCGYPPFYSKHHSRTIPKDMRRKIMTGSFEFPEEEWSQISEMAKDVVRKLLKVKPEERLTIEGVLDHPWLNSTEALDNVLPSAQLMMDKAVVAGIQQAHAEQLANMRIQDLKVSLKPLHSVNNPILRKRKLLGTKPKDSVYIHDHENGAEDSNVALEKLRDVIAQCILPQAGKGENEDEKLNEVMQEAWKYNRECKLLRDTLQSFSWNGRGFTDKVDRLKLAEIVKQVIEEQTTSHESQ

[2] = target: T1, MAP kinase-activated protein kinase 5; assay: Inhibition of MAPKAPK5 in synovial fibroblast from rheumatoid arthritis patient assessed as inhibition of TNF-alpha-induced MMP1 expression incubated for 30 mins prior to TNFalpha-challenge measured after 48 hrs by ELISA

| SMILES | IC50 [1] | IC50 [2] |
| --- | --- | --- |
| CN(c1ccc(N2CCOCC2)cc1)c1ncc(-c2cn[nH]c2)n2ccnc12 | > 10 µM | – |
| CN1CCN(c2ccc(Nc3ncc(-c4cc[nH]c(=O)c4)n4ncnc34)cc2)CC1 | 3.73 µM | – |
| NC(=O)c1cnc(-c2cnc(Nc3ccc(N4CCOCC4)cc3)c3nccn23)s1 | 2.82 µM | > 10 µM |
| c1cn2c(-c3ccc4[nH]ccc4c3)cnc(Nc3ccc(N4CCOCC4)cc3)c2n1 | > 10 µM | – |
| NS(=O)(=O)c1ccc(-c2cnc(Nc3ccc(N4CCOCC4)cc3)c3nccn23)cc1 | > 10 µM | > 10 µM |
| c1cn2c(-c3c[nH]nn3)cnc(Nc3ccc(N4CCOCC4)cc3)c2n1 | 1.49 µM | > 10 µM |
| NC(=O)c1ccc(-c2cnc(Nc3ccc(N4CCOCC4)cc3)c3nccn23)cc1F | 2.39 µM | > 10 µM |
| CN(C)c1cc(-c2cnc(Nc3ccc(N4CCOCC4)cc3)c3nccn23)ccn1 | > 10 µM | – |
| CCOc1cc(-c2cnc(Nc3ccc(N4CCOCC4)cc3)c3nccn23)ccn1 | > 10 µM | – |
| NC(=O)c1ncc(-c2cnc(Nc3ccc(N4CCOCC4)cc3)c3nccn23)s1 | 3.2 µM | > 10 µM |

From ChEMBL document CHEMBL1955844, “Discovery of a series of imidazopyrazine small molecule inhibitors of the kinase MAPKAPK5, that show activity using in vitro and in vivo models of rheumatoid arthritis” (Bioorg Med Chem Lett, 2012)
